Laboratory results from PubChem BioAssay (NCI).
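All cell lines were grown in 96-well plates and treated with compound for 48 hours. Definition used: TGI = concentration required for complete inhibition of growth.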

Key:
Test in all cases: NCI tumour cell line growth inhibition, 48 h
U251 CNS = system: U251 CNS
CAKI-1 renal = system: CAKI-1 renal
TK-10 renal = system: TK-10 renal
EKVX NSCLC = system: EKVX NSCLC
SK-MEL-2 melanoma = system: SK-MEL-2 melanoma
HOP-62 NSCLC = system: HOP-62 NSCLC
OVCAR-5 ovarian = system: OVCAR-5 ovarian
SK-MEL-28 melanoma = system: SK-MEL-28 melanoma
HOP-92 NSCLC = system: HOP-92 NSCLC
RPMI-8226 leukemia = system: RPMI-8226 leukemia
UACC-62 melanoma = system: UACC-62 melanoma
HT29 colon = system: HT29 colon
SW-620 colon = system: SW-620 colon
COLO 205 colon = system: COLO 205 colon

SMILES	TGI (U251 CNS) [µM]	TGI (CAKI-1 renal) [µM]	TGI (TK-10 renal) [µM]	TGI (EKVX NSCLC) [µM]	TGI (SK-MEL-2 melanoma) [µM]	TGI (HOP-62 NSCLC) [µM]	TGI (OVCAR-5 ovarian) [µM]	TGI (SK-MEL-28 melanoma) [µM]	TGI (HOP-92 NSCLC) [µM]	TGI (RPMI-8226 leukemia) [µM]	TGI (UACC-62 melanoma) [µM]	TGI (HT29 colon) [µM]	TGI (SW-620 colon) [µM]	TGI (COLO 205 colon) [µM]
CCc1ccc2c(c1)N(CC(C)CN(C)C)c1ccccc1S2 (centres undefined)	17.4	18.3	11.4	24.3	12	17.8	19.9	5.45	15.4	6.28	13.1	12.5	14.6	8.47
O=C(O)c1cc(CCc2cc(O)ccc2O)ccc1O	> 100	> 100	> 100	> 100	> 100	> 100	> 100	> 100	> 100	> 100	> 100	> 100	> 100	> 100
COc1ccc(C2=NOC(N)(c3ccc(OC)cc3)C2)cc1 (centres undefined)	> 100	> 100	> 100	> 100	> 100	> 100	> 100	> 100	> 100	> 100	> 100	> 100	> 100	> 100
CCOC(=O)C1CCCCN1C(=O)Cc1c[nH]c2ccccc12 (centres undefined)	> 100	> 100	> 100	> 100	> 100	> 100	> 100	> 100	> 100	64.7	> 100	> 100	> 100	> 100
CN=C(Nc1cccc(C(F)(F)F)c1)SCc1ccc(N=C=S)cc1	29.8	30.4	23.5	45.1	25.6	31.7	30.2	48.9	30.5	45.8	24.6	31.2	41	30.6
Nc1ncnc2c1ncn2[C@@H]1O[C@H](COC(c2ccccc2)(c2ccccc2)c2ccccc2)[C@@H](OC(=S)Oc2ccccc2)[C@@H]1F	21.8	41.6	32.3	26.6	19.4	46	37	33.5	28.6	> 100	29.7	22.7	29.7	24.8
